Laboratory results reported in US20100152434A1, “Protein Kinase-binding Nucleosides and Associated Methods” (priority 2007, published 2010).

Key:
HOP-92 = conditions: single dose (10 μM)
MOLT-4 = conditions: single dose (10 μM)
LOX IMVI = conditions: single dose (10 μM)
UO-31 = conditions: single dose (10 μM)
RXF 393 = conditions: RXF393; single dose (10 μM)

For `CNC(=O)NC[C@H]1O[C@@H](n2cnc3c(NC(=O)Nc4ccccc4)ncnc32)C2OC(=O)C[C@H]21` (some centres unmarked) [Compound 33, 3′-(Carboxymethyl)-3′,5′-dideoxy-5′-[(N-methylcarbamoyl)amino]-N^6-(N-phenylcarbamoyl)adenosine-2′,3′-lactone], the “anticancer activity (GI)” value (HOP-92) was “potent and selective anticancer activities”, the “anticancer activity (GI)” value (MOLT-4) was “potent and selective anticancer activities” and the “anticancer activity (GI)” value (LOX IMVI) was “potent and selective anticancer activities”. For the same molecule, the “anticancer activity (GI)” value (UO-31) was “potent and selective anticancer activities” and the “anticancer activity (GI)” value (RXF 393) was “potent and selective anticancer activities”.
